Test results reported in ChEMBL document CHEMBL1201862, “PubChem BioAssay data set” (2004).
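All cell lines were grown in 96-well plates and treated with compound for 48 hours. GI50 = concentration required for 50% inhibition of growth.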 Calls of active or inactive are those of the source. Cut-off read from the data, not from the text of the source: active = GI50 up to about 1.1 µM and inactive = higher.

What was measured:
Test in all cases: NCI-60 cell line screen, 48 h
ACHN = tested on: ACHN
CCRF-CEM = tested on: CCRF-CEM
DU-145 = tested on: DU-145
HOP-92 = tested on: HOP-92
HT-29 = tested on: HT-29
K562 = tested on: K562
M14 = tested on: M14
MCF7 = tested on: MCF7
NCI/ADR-RES = tested on: NCI/ADR-RES
OVCAR-3 = tested on: OVCAR-3
OVCAR-8 = tested on: OVCAR-8
SK-MEL-2 = tested on: SK-MEL-2
SK-MEL-5 = tested on: SK-MEL-5
SK-OV-3 = tested on: SK-OV-3
SNB-19 = tested on: SNB-19
SR = tested on: SR
SW-620 = tested on: SW-620
TK-10 = tested on: TK-10

Row | Structure (SMILES) | GI50 (ACHN) | GI50 (CCRF-CEM) | GI50 (DU-145) | GI50 (HOP-92) | GI50 (HT-29) | GI50 (K562) | GI50 (M14) | GI50 (MCF7) | GI50 (NCI/ADR-RES) | GI50 (OVCAR-3) | GI50 (OVCAR-8) | GI50 (SK-MEL-2) | GI50 (SK-MEL-5) | GI50 (SK-OV-3) | GI50 (SNB-19) | GI50 (SR) | GI50 (SW-620) | GI50 (TK-10)
1 | COc1ccc2c(Cl)cc(NC(=S)Nc3ccccc3)nc2c1 | 38.5 µM (inactive) | < 0.01 µM (active) | 35.7 µM (inactive) | 21.8 µM (inactive) | 22.4 µM (inactive) | 23.4 µM (inactive) | 18.3 µM (inactive) | 25.8 µM (inactive) | 22.3 µM (inactive) | 31.8 µM (inactive) | 19.4 µM (inactive) | 22.4 µM (inactive) | 33.6 µM (inactive) | 26 µM (inactive) | 20.6 µM (inactive) | 26.2 µM (inactive) | 26.4 µM (inactive) | 57.7 µM (inactive)
2 | CC(NC(=O)c1ccccc1)(C(=O)O)C(=O)O | > 100 µM (inactive) | > 100 µM (inactive) | > 100 µM (inactive) | 83 µM (inactive) | > 100 µM (inactive) | > 100 µM (inactive) | > 100 µM (inactive) | > 100 µM (inactive) | > 100 µM (inactive) | > 100 µM (inactive) | > 100 µM (inactive) | > 100 µM (inactive) | > 100 µM (inactive) | > 100 µM (inactive) | > 100 µM (inactive) | > 100 µM (inactive) | > 100 µM (inactive) | > 100 µM (inactive)
3 | COc1ccc(C2c3cc4c(cc3OC(N3CCOCC3)C2C)OCO4)c(OC)c1 (stereo not drawn) | 9.48 µM (inactive) | 3.5 µM (inactive) | 9.89 µM (inactive) | 3.32 µM (inactive) | 3.48 µM (inactive) | 3.02 µM (inactive) | 3.96 µM (inactive) | 4.59 µM (inactive) | 2.71 µM (inactive) | 3.48 µM (inactive) | 8 µM (inactive) | 4.95 µM (inactive) | 2.81 µM (inactive) | 4.43 µM (inactive) | 4.36 µM (inactive) | 4.21 µM (inactive) | 3.72 µM (inactive) | 7.78 µM (inactive)
4 | O=C1/C(=N/O)Cc2c(Br)ccc(Br)c21 | 40.7 µM (inactive) | 27.8 µM (inactive) | 71.6 µM (inactive) | > 100 µM (inactive) | > 100 µM (inactive) | 26 µM (inactive) | > 100 µM (inactive) | 36.1 µM (inactive) | 35.7 µM (inactive) | 22.3 µM (inactive) | 42.7 µM (inactive) | 17.9 µM (inactive) | 32.4 µM (inactive) | 37.2 µM (inactive) | – | 28.4 µM (inactive) | 63.5 µM (inactive) | 48.4 µM (inactive)
5 | COc1cc(/C=C2\C(=O)N(c3ccc(NC(C)=O)cc3)C(c3ccccc3)S2(=O)=O)cc(OC)c1OC (stereo not drawn) | > 100 µM (inactive) | 44.5 µM (inactive) | > 100 µM (inactive) | > 100 µM (inactive) | > 100 µM (inactive) | 39.9 µM (inactive) | > 100 µM (inactive) | 45.5 µM (inactive) | > 100 µM (inactive) | 93.3 µM (inactive) | > 100 µM (inactive) | > 100 µM (inactive) | 68.1 µM (inactive) | > 100 µM (inactive) | > 100 µM (inactive) | 36.7 µM (inactive) | > 100 µM (inactive) | > 100 µM (inactive)
6 | CC1(C)CCC(=O)NC1CC(=O)CC1NC(=O)CCC1(C)C (stereo not drawn) | > 100 µM (inactive) | > 100 µM (inactive) | > 100 µM (inactive) | > 100 µM (inactive) | > 100 µM (inactive) | > 100 µM (inactive) | > 100 µM (inactive) | > 100 µM (inactive) | > 100 µM (inactive) | > 100 µM (inactive) | > 100 µM (inactive) | > 100 µM (inactive) | > 100 µM (inactive) | > 100 µM (inactive) | > 100 µM (inactive) | 7.08 µM (inactive) | > 100 µM (inactive) | > 100 µM (inactive)
7 | CCN1C(=O)c2ccccc2C1(O)c1ccc(Cl)cc1 (stereo not drawn) | 46.5 µM (inactive) | 59.8 µM (inactive) | 80.2 µM (inactive) | > 100 µM (inactive) | 41.9 µM (inactive) | > 100 µM (inactive) | 59.4 µM (inactive) | 47.6 µM (inactive) | 16.5 µM (inactive) | 31.1 µM (inactive) | 52.8 µM (inactive) | 18.7 µM (inactive) | 31.6 µM (inactive) | 24.4 µM (inactive) | 20.7 µM (inactive) | 41.2 µM (inactive) | > 100 µM (inactive) | 94.4 µM (inactive)
8 | CSc1ncnc2c1cnn2Cc1cn(COCCO)nn1 | > 100 µM (inactive) | 43.5 µM (inactive) | 49.3 µM (inactive) | > 100 µM (inactive) | 22.3 µM (inactive) | 38.4 µM (inactive) | > 100 µM (inactive) | 43.3 µM (inactive) | > 100 µM (inactive) | 18.3 µM (inactive) | – | 39 µM (inactive) | 46.8 µM (inactive) | 47.6 µM (inactive) | > 100 µM (inactive) | 12.5 µM (inactive) | 44.3 µM (inactive) | > 100 µM (inactive)
9 | CC1(CNCc2ccccc2)CC(CCc2ccccc2)N(C(=O)c2ccc([N+](=O)[O-])cc2)C1Cc1ccc(O)cc1 (stereo not drawn) | 12 µM (inactive) | 23.2 µM (inactive) | 14.7 µM (inactive) | 2.04 µM (inactive) | 5.65 µM (inactive) | 33.7 µM (inactive) | 13.7 µM (inactive) | 5.24 µM (inactive) | 14.7 µM (inactive) | 12.1 µM (inactive) | 14.4 µM (inactive) | 13.6 µM (inactive) | 5.35 µM (inactive) | 17.1 µM (inactive) | 14.7 µM (inactive) | 6.75 µM (inactive) | 21.5 µM (inactive) | 16.4 µM (inactive)
10 | COCCOCCOC1=CC(=O)c2c(O)ccc(O)c2C1=O | 1.61 µM (inactive) | 1.41 µM (inactive) | 1.49 µM (inactive) | 2.18 µM (inactive) | 0.518 µM (active) | 0.671 µM (active) | 0.971 µM (active) | 0.555 µM (active) | 1.96 µM (inactive) | 1.44 µM (inactive) | – | 1.84 µM (inactive) | 0.173 µM (active) | > 10 µM (inactive) | 1.75 µM (inactive) | 1.19 µM (inactive) | 0.571 µM (active) | 2.93 µM (inactive)
11 | C=C(C)CCC1CCCCC(CN(C)C)C1=O (stereo not drawn) | > 100 µM (inactive) | > 100 µM (inactive) | > 100 µM (inactive) | > 100 µM (inactive) | > 100 µM (inactive) | > 100 µM (inactive) | > 100 µM (inactive) | 75 µM (inactive) | > 100 µM (inactive) | > 100 µM (inactive) | > 100 µM (inactive) | > 100 µM (inactive) | > 100 µM (inactive) | > 100 µM (inactive) | > 100 µM (inactive) | > 100 µM (inactive) | > 100 µM (inactive) | > 100 µM (inactive)
12 | Nc1ncnc2c1ncn2[C@@H]1C[C@H](NO)[C@@H](O)[C@H]1O | > 100 µM (inactive) | 22.3 µM (inactive) | > 100 µM (inactive) | > 100 µM (inactive) | – | 28.1 µM (inactive) | > 100 µM (inactive) | 49.3 µM (inactive) | 68.5 µM (inactive) | > 100 µM (inactive) | > 100 µM (inactive) | > 100 µM (inactive) | > 100 µM (inactive) | > 100 µM (inactive) | > 100 µM (inactive) | 3.55 µM (inactive) | 26.9 µM (inactive) | > 100 µM (inactive)
13 | Oc1ccccc1/C=N/c1nc2cc3sc(/N=C/c4ccccc4O)nc3cc2s1 | 46.3 µM (inactive) | 4.74 µM (inactive) | > 48.6 µM (inactive) | > 100 µM (inactive) | 26.2 µM (inactive) | 67.3 µM (inactive) | 97.1 µM (inactive) | 12.5 µM (inactive) | > 100 µM (inactive) | > 100 µM (inactive) | > 100 µM (inactive) | > 100 µM (inactive) | > 47.9 µM (inactive) | > 89.3 µM (inactive) | > 100 µM (inactive) | 2.63 µM (inactive) | 20.7 µM (inactive) | > 86.9 µM (inactive)
14 | CCN(CC)CCN1CCN=c2c3cc(OC)ccc3n3cnc4ccc1c2c43 | 0.339 µM (active) | 0.218 µM (active) | 0.7 µM (active) | 1.12 µM (inactive) | 0.0859 µM (active) | 0.2 µM (active) | 0.719 µM (active) | 0.171 µM (active) | 0.475 µM (active) | 0.946 µM (active) | 0.318 µM (active) | 0.587 µM (active) | 1.4 µM (inactive) | 1.6 µM (inactive) | 0.481 µM (active) | 0.174 µM (active) | 0.0456 µM (active) | 1.07 µM (active)
15 | CCOC(=O)c1sc(N/N=C2\NC(=O)/C(=C/c3ccc([N+](=O)[O-])cc3)S2)nc1C | 21.8 µM (inactive) | 15.1 µM (inactive) | 16.8 µM (inactive) | 16.9 µM (inactive) | 25.2 µM (inactive) | – | 28.8 µM (inactive) | 22.3 µM (inactive) | 23.9 µM (inactive) | 14.5 µM (inactive) | 22.4 µM (inactive) | 24.8 µM (inactive) | 16.8 µM (inactive) | 31.4 µM (inactive) | 32.6 µM (inactive) | 6.65 µM (inactive) | 31.8 µM (inactive) | 35.3 µM (inactive)
16 | O=C(/C=C/c1ccc(O)c(O)c1)NC(COC(=O)/C=C/c1ccc(O)c(O)c1)C(=O)O (stereo not drawn) | > 100 µM (inactive) | 37.8 µM (inactive) | > 100 µM (inactive) | > 100 µM (inactive) | > 100 µM (inactive) | > 100 µM (inactive) | > 100 µM (inactive) | > 100 µM (inactive) | > 100 µM (inactive) | > 100 µM (inactive) | > 100 µM (inactive) | > 100 µM (inactive) | > 100 µM (inactive) | > 100 µM (inactive) | > 100 µM (inactive) | > 100 µM (inactive) | > 100 µM (inactive) | > 100 µM (inactive)
